The values that follow come from patent US20060252807A1, “Novel ortho-terphenyl inhibitors of p38 kinase and methods of treating inflammatory disorders” (Kalypsys, Inc., priority 2005, published 2006).

Broadly, the pIC50 is −log10 of the IC50, conventionally taken in molar units. High values mean a small IC50, low ones a large IC50.

pIC50: −log10 of the molar value. Where only a bound is given, the exact number is not on record here.

The target in the experiment is T1, active p38 alpha enzyme (Upstate Biotechnology) (Homo sapiens, UniProt Q16539).
T1 construct: purchased Upstate Biotechnology
T1 sequence (Q16539 whole entry): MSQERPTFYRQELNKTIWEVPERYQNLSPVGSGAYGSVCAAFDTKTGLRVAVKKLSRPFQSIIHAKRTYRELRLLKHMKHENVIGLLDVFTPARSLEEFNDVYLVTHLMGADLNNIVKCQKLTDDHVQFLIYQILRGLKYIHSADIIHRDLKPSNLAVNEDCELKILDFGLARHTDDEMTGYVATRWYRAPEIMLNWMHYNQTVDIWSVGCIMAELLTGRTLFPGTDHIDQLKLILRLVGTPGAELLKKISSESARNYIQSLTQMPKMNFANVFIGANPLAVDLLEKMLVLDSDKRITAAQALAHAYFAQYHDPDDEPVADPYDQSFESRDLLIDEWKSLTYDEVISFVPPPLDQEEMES
The experiment can be described thus: p38α biochemical assay (ATP turnover, luminescent detection, Cambrex PKlight). To be noted: p38α kinase; Table 1 Biological Activity. Summed up: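 Active p38α phosphorylates MapkapK2 whole protein with 1.4 uM final ATP, 2 h at 30C, in Tris/MOPS buffer with MgCl2, CaCl2, EGTA, EDTA, glycerol, β-mercaptoethanol and 1 mg/ml BSA. Compounds pin-delivered from DMSO; total ATP turnover read by luminescence after PKlight addition.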
With `CC(C)NC(=O)c1csc(-c2oc(CNc3cnc4ccccc4c3)nc2-c2ccc(F)cc2)n1` [Example 1346], the pIC50 is under 6.00.

On to `CC(C)NC(=O)c1csc(-c2oc(CNc3cc(F)c(F)cc3F)nc2-c2ccc(F)cc2)n1` [Example 1347], for which the pIC50 was under 6.00.

On to `CC(C)NC(=O)c1csc(-c2oc(CNc3ccccc3C(C)(C)C)nc2-c2ccc(F)cc2)n1` [Example 1348], for which the pIC50 is under 6.00.

Compound `Cc1cccc(C(C)C)c1NCc1nc(-c2ccc(F)cc2)c(-c2nc(C(=O)NC(C)C)cs2)o1` [Example 1349] had a pIC50 of under 6.00.

As to `CC(C)NC(=O)c1csc(-c2oc(CNc3ccc4ncsc4c3)nc2-c2ccc(F)cc2)n1` [Example 1350], the pIC50 was under 6.00.

Compound `CC(=O)Nc1ccc(NCc2nc(-c3ccc(F)cc3)c(-c3nc(C(=O)NC(C)C)cs3)o2)cc1` [Example 1351] gave a pIC50 of under 6.00.

`CC(=O)Nc1ccc(NCc2nc(-c3ccc(F)cc3)c(-c3nc(C(=O)NC(C)C)cs3)o2)cn1` [Example 1352] had a pIC50 of under 6.00.

Regarding `CC(C)NC(=O)c1csc(-c2oc(CNc3ccc4c(c3)OCCO4)nc2-c2ccc(F)cc2)n1` [Example 1353], the pIC50 was under 6.00.

Compound `CC(C)NC(=O)c1csc(-c2oc(CNc3ccccc3-n3cccc3)nc2-c2ccc(F)cc2)n1` [Example 1354] gave a pIC50 of under 6.00.

`CC(C)NC(=O)c1csc(-c2oc(CNc3ccc(C(F)(F)F)cc3)nc2-c2ccc(F)cc2)n1` [Example 1355] gave a pIC50 of under 6.00.

With `CC(C)NC(=O)c1csc(-c2oc(CNc3cccc(C(F)(F)F)c3)nc2-c2ccc(F)cc2)n1` [Example 1356], the pIC50 is under 6.00.

`CC(C)NC(=O)c1csc(-c2oc(CNc3ccc(Cl)c(Cl)c3)nc2-c2ccc(F)cc2)n1` [Example 1357] showed a pIC50 of under 6.00.

On to `Cc1cccc(C(C)(C)C)c1NCc1nc(-c2ccc(F)cc2)c(-c2nc(C(=O)NC(C)C)cs2)o1` [Example 1358], for which the pIC50 is under 6.00.

Compound `CC(C)NC(=O)c1csc(-c2oc(CNc3ccc(N(C)C)cc3)nc2-c2ccc(F)cc2)n1` [Example 1359] showed a pIC50 of under 6.00.

`CC(C)NC(=O)c1csc(-c2oc(CNc3ccccc3-c3ccccc3)nc2-c2ccc(F)cc2)n1` [Example 1360]: the pIC50 was under 6.00.

`CC(C)NC(=O)c1csc(-c2oc(CNc3ccc(OC(F)(F)F)cc3)nc2-c2ccc(F)cc2)n1` [Example 1361]: the pIC50 was under 6.00.

The compound `CC(C)NC(=O)c1csc(-c2oc(CNc3c(C(C)C)cccc3C(C)C)nc2-c2ccc(F)cc2)n1` [Example 1362] had a pIC50 of under 6.00.

`CC(C)NC(=O)c1csc(-c2oc(CNc3ccc(F)cc3C(F)(F)F)nc2-c2ccc(F)cc2)n1` [Example 1363] had a pIC50 of under 6.00.

`CC(C)NC(=O)c1csc(-c2oc(CNc3cc(C(F)(F)F)ccc3F)nc2-c2ccc(F)cc2)n1` [Example 1364] gave a pIC50 of under 6.00.

`CC(C)NC(=O)c1csc(-c2oc(CNc3ccc(F)c(C(F)(F)F)c3)nc2-c2ccc(F)cc2)n1` [Example 1365] gave a pIC50 of under 6.00.

`CCOc1ccc(OCC)c(NCc2nc(-c3ccc(F)cc3)c(-c3nc(C(=O)NC(C)C)cs3)o2)c1` [Example 1366] had a negative-log IC50 (pIC50) of under 6.00.

In turn, `CC(C)NC(=O)c1csc(-c2oc(CNc3cc(Cl)c(Cl)c(Cl)c3)nc2-c2ccc(F)cc2)n1` [Example 1367] gave a pIC50 of under 6.00.

`CC(C)NC(=O)c1csc(-c2oc(CNc3ccccc3C(=O)c3ccccc3)nc2-c2ccc(F)cc2)n1` [Example 1368]: the pIC50 was under 6.00.

Compound `CC(C)NC(=O)c1csc(-c2oc(CNc3ccccc3COc3ccccc3)nc2-c2ccc(F)cc2)n1` [Example 1369] showed a pIC50 of under 6.00.

In turn, `COc1ccc(-c2ccccc2)cc1NCc1nc(-c2ccc(F)cc2)c(-c2nc(C(=O)NC(C)C)cs2)o1` [Example 1370] showed a pIC50 of under 6.00.

On to `CC(C)NC(=O)c1csc(-c2oc(CNc3ncccc3OCc3ccccc3)nc2-c2ccc(F)cc2)n1` [Example 1371], for which the pIC50 was under 6.00.

For `CC(C)NC(=O)c1csc(-c2oc(CNc3cc(C(F)(F)F)ccc3C(F)(F)F)nc2-c2ccc(F)cc2)n1` [Example 1372], the pIC50 is under 6.00.

Turning to `CC(C)NC(=O)c1csc(-c2oc(CNc3cc(C(F)(F)F)cc(C(F)(F)F)c3)nc2-c2ccc(F)cc2)n1` [Example 1373], the pIC50 was under 6.00.

Compound `CC(C)NC(=O)c1csc(-c2oc(CNc3ccc(C(F)(F)F)cc3C(F)(F)F)nc2-c2ccc(F)cc2)n1` [Example 1374] gave a pIC50 of under 6.00.

As to `CC(C)NC(=O)c1csc(-c2c(-c3ccc(F)cc3)noc2CNCCO)n1` [Example 1375], the pIC50 was under 6.00.

Turning to `CCOC(=O)N1CCC(NCc2onc(-c3ccc(F)cc3)c2-c2nc(C(=O)NC(C)C)cs2)CC1` [Example 1376], the negative logarithm of the IC50 (pIC50) was under 6.00.

`COCCNCc1onc(-c2ccc(F)cc2)c1-c1nc(C(=O)NC(C)C)cs1` [Example 1377] gave a pIC50 of under 6.00.

`CC(C)NC(=O)c1csc(-c2c(-c3ccc(F)cc3)noc2CNC2CCCc3ccccc32)n1` (stereo not drawn) [Example 1378] gave a pIC50 of under 6.00.

`COc1ccc(NCc2onc(-c3ccc(F)cc3)c2-c2nc(C(=O)NC(C)C)cs2)cc1OC` [Example 1379] showed a pIC50 of under 6.00.

With `CC(C)NC(=O)c1csc(-c2c(-c3ccc(F)cc3)noc2CN(CCC#N)Cc2ccccc2)n1` [Example 1381], the pIC50 was under 6.00.

With `CNCc1onc(-c2ccc(F)cc2)c1-c1nc(C(=O)NC(C)C)cs1` [Example 1382], the pIC50 is under 6.00.

On to `CCNCc1onc(-c2ccc(F)cc2)c1-c1nc(C(=O)NC(C)C)cs1` [Example 1383], for which the pIC50 is under 6.00.

`C#CCNCc1onc(-c2ccc(F)cc2)c1-c1nc(C(=O)NC(C)C)cs1` [Example 1384] gave a pIC50 of under 6.00.

Turning to `CC(C)NC(=O)c1csc(-c2c(-c3ccc(F)cc3)noc2CNCC#N)n1` [Example 1385], the pIC50 is at least 6.00.

The compound `CC(C)NC(=O)c1csc(-c2c(-c3ccc(F)cc3)noc2CNC2CC2)n1` [Example 1386] had a pIC50 of under 6.00.

In turn, `CC(C)NCc1onc(-c2ccc(F)cc2)c1-c1nc(C(=O)NC(C)C)cs1` [Example 1387] gave a pIC50 of under 6.00.

Take `CCCNCc1onc(-c2ccc(F)cc2)c1-c1nc(C(=O)NC(C)C)cs1` [Example 1388]: the pIC50 is under 6.00.

The compound `CC(C)NC(=O)c1csc(-c2c(-c3ccc(F)cc3)noc2CNCCN)n1` [Example 1389] had a pIC50 of under 6.00.

Compound `CC(C)NC(=O)c1csc(-c2c(-c3ccc(F)cc3)noc2CNCCC#N)n1` [Example 1390] gave a pIC50 of under 6.00.

Compound `CC(C)NC(=O)c1csc(-c2c(-c3ccc(F)cc3)noc2CNC2CCC2)n1` [Example 1391] showed a pIC50 of under 6.00.

Compound `CC(C)NC(=O)c1csc(-c2c(-c3ccc(F)cc3)noc2CNCC2CC2)n1` [Example 1392] had a pIC50 of under 6.00.

On to `CCC(C)NCc1onc(-c2ccc(F)cc2)c1-c1nc(C(=O)NC(C)C)cs1` (stereo not drawn) [Example 1393], for which the pIC50 was under 6.00.

For `CC(C)CNCc1onc(-c2ccc(F)cc2)c1-c1nc(C(=O)NC(C)C)cs1` [Example 1394], the pIC50 is under 6.00.

Consider `CC(C)NC(=O)c1csc(-c2c(-c3ccc(F)cc3)noc2CNCCCO)n1` [Example 1395], for which the pIC50 is under 6.00.

`CC(C)NC(=O)c1csc(-c2c(-c3ccc(F)cc3)noc2CNC(C)CO)n1` (stereo not drawn) [Example 1396] had a pIC50 of under 6.00.

In turn, `CC(C)NC(=O)c1csc(-c2c(-c3ccc(F)cc3)noc2CNC2CCCC2)n1` [Example 1397] showed a negative logarithm of the IC50 (pIC50) of under 6.00.

With `CCCC(C)NCc1onc(-c2ccc(F)cc2)c1-c1nc(C(=O)NC(C)C)cs1` (stereo not drawn) [Example 1398], the pIC50 is under 6.00.

With `CCC(C)CNCc1onc(-c2ccc(F)cc2)c1-c1nc(C(=O)NC(C)C)cs1` (stereo not drawn) [Example 1399], the pIC50 is under 6.00.

Take `CC(C)NC(=O)c1csc(-c2c(-c3ccc(F)cc3)noc2CNC(C)C(C)C)n1` (stereo not drawn) [Example 1400]: the pIC50 is under 6.00.

For `CC(C)CCNCc1onc(-c2ccc(F)cc2)c1-c1nc(C(=O)NC(C)C)cs1` [Example 1401], the pIC50 was under 6.00.

Compound `CC(C)NC(=O)c1csc(-c2c(-c3ccc(F)cc3)noc2CNCCN(C)C)n1` [Example 1402] gave a pIC50 of under 6.00.

Compound `COCC(C)NCc1onc(-c2ccc(F)cc2)c1-c1nc(C(=O)NC(C)C)cs1` (stereo not drawn) [Example 1403] showed a pIC50 of under 6.00.

Compound `CCC(CO)NCc1onc(-c2ccc(F)cc2)c1-c1nc(C(=O)NC(C)C)cs1` (stereo not drawn) [Example 1405] showed a negative-log IC50 (pIC50) of under 6.00.

`CC(C)NC(=O)c1csc(-c2c(-c3ccc(F)cc3)noc2CNCCCCO)n1` [Example 1406] showed a pIC50 of under 6.00.

Take `CC(C)NC(=O)c1csc(-c2c(-c3ccc(F)cc3)noc2CNCc2ccco2)n1` [Example 1407]: the pIC50 is under 6.00.

In turn, `CC(C)NC(=O)c1csc(-c2c(-c3ccc(F)cc3)noc2CNC2CCCCC2)n1` [Example 1408] showed a pIC50 of under 6.00.

Turning to `CC(C)NC(=O)c1csc(-c2c(-c3ccc(F)cc3)noc2CNCC2CCCO2)n1` (stereo not drawn) [Example 1409], the pIC50 is under 6.00.

`CC(C)NC(=O)c1csc(-c2c(-c3ccc(F)cc3)noc2CNCCC(C)(C)C)n1` [Example 1410] had a pIC50 of under 6.00.

Consider `CC(C)CC(C)NCc1onc(-c2ccc(F)cc2)c1-c1nc(C(=O)NC(C)C)cs1` (stereo not drawn) [Example 1411], for which the negative logarithm of the IC50 (pIC50) is under 6.00.

Turning to `CC(C)NC(=O)c1csc(-c2c(-c3ccc(F)cc3)noc2CNC2CONC2=O)n1` (stereo not drawn) [Example 1412], the pIC50 is under 6.00.

Regarding `CC(C)NC(=O)c1csc(-c2c(-c3ccc(F)cc3)noc2CNN2CCOCC2)n1` [Example 1413], the pIC50 is under 6.00.

`CC(C)NC(=O)c1csc(-c2c(-c3ccc(F)cc3)noc2CNC(CO)C(C)C)n1` (stereo not drawn) [Example 1414]: the pIC50 was under 6.00.

Compound `CC(C)NC(=O)c1csc(-c2c(-c3ccc(F)cc3)noc2CNCc2ccccc2)n1` [Example 1415] had a pIC50 of under 6.00.

On to `CC(C)NC(=O)c1csc(-c2c(-c3ccc(F)cc3)noc2CNCc2cccnc2)n1` [Example 1416], for which the pIC50 is under 6.00.
